# According to patent US20240327432A1, “THIOPHENE-PHENOTHIAZINE COMPOUNDS AND SYNTHESIS METHOD THEREOF, AS WELL AS APPLICATION THEREOF IN PREPARATION OF PHOTOTHERAPY MEDICINES” (Guangzhou Medical University, priority 2023, published 2024):
# Legend:
# [1] = system: A549 cells; assay: Dark toxicity measurement (CCK-8), A549; assay type: cell-based; settings: Homo sapiens, 24 h in dark, read-out: DK IC50 (dark toxicity)
# Protocol: (§1) (1) Cell culture: HUVEC cells (human umbilical vein endothelial cells), A549 cells (human lung cancer cells), MCF-7 cells (human breast cancer cells), HeLa cells (human cervical cancer cells) and 4T1 cells (mouse breast cancer cells) were cultured in a DMEM high-glucose medium containing 10% fetal bovine serum and 1% penicillin-streptomycin at 37° C. and under a condition of a 5% carbon dioxide content. The HUVEC cells, the A549 cells, the MCF-7 cells, the HeLa cells and the 4T1 cells, at a logarithmic growth phase, were taken and inoculated into a 96-well plate, respectively, with approximately 1×10^4 cells per well, and incubation was performed overnight at 37° C. and under a condition of 5% CO2.
# (§2) (2) Dark toxicity measurement: the cells were incubated in a dark environment with the compound of the present invention of different concentrations for 24 hours, and cell viability was measured by a CCK-8 method.
# [2] = system: 4T1 cells; assay: Phototoxicity measurement (CCK-8), 4T1; assay type: cell-based, mouse; settings: for IC50: 1 h incubation, 630 nm LED, 3.2 J cm^−2, then 24 h, read-out: PDK IC50 (phototoxicity)
# Protocol: as §1
# (§3) (3) Phototoxicity measurement: the cells were incubated in the dark with the compound of the present invention of different concentrations for 1 hour, rinsing was performed with PBS, a fresh culture solution was added, and the cells were irradiated with 630 nm LED light (light dose is 3.2 J cm^−2). Then the cells were incubated in the dark environment for 24 hours, and cell viability was measured by the CCK-8 method.
# [3] = system: HUVEC cells; assay: Dark toxicity measurement (CCK-8), HUVEC; assay type: cell-based; settings: Homo sapiens, 24 h in dark
# Protocol: as §1, §2
# [4] = system: 4T1 cells; assay: Dark toxicity measurement (CCK-8), 4T1; assay type: cell-based, mouse; settings: 24 h in dark, read-out: DK IC50 (dark toxicity)
# Protocol: as §1, §2
# [5] = system: MCF-7 cells; assay: Dark toxicity measurement (CCK-8), MCF-7; assay type: cell-based; settings: Homo sapiens, MCF7, 24 h in dark, read-out: DK IC50 (dark toxicity)
# Protocol: as §1, §2
# [6] = Absorption spectrum by UV-visible spectrophotometer; assay type: physicochemical; settings: measured in ethanol
# Protocol: (§4) Detection of the thiophene-phenothiazine compounds prepared in Examples 1-5: the absorption spectrum of the thiophene-phenothiazine compound in an ethanol solution was measured by using a UV-visible spectrophotometer, and spectral properties of the thiophene-phenothiazine compound were analyzed according to Beer-Lambert law; and a fluorescence emission spectrum of the thiophene-phenothiazine compound in the ethanol solution was measured under excitation of light with a wavelength of 650 nm, and results are shown in Table 1 and FIGS. 2-3.
# (§5) • a. Absorbance was measured in ethanol. • b. During fluorescence emission spectrum measurement, an excitation wavelength was 650 nm, and a solvent was methanol. • c. ϕF of MB was used as a reference [ϕF=0.04, methanol].
# [7] = Fluorescence emission spectrum; assay type: physicochemical; settings: for λem (maximum fluorescence emission wavelength): excitation 650 nm, solvent methanol; for ϕF (fluorescence quantum yield): ϕF of MB as reference (0.04, methanol)
# Protocol: as §4, with “and a fluorescence emission spectrum of the thiophene-phenothiazine compound in the ethanol solution was measured under excitation of light” left out
# as §5
# [8] = system: A549 cells; assay: Phototoxicity measurement (CCK-8), A549; assay type: cell-based, human; settings: for IC50: Homo sapiens, light or radiation study, 1 h incubation, 630 nm LED, 3.2 J cm^−2, then 24 h, read-out: PDK IC50 (phototoxicity)
# Protocol: as §1, §3
# [9] = system: MCF-7 cells; assay: Phototoxicity measurement (CCK-8), MCF-7; assay type: cell-based, human; settings: for IC50: Homo sapiens, MCF7, light or radiation study, 1 h incubation, 630 nm LED, 3.2 J cm^−2, then 24 h, read-out: PDK IC50 (phototoxicity)
# Protocol: as §1, §3
# [10] = system: HeLa cells; assay: Dark toxicity measurement (CCK-8), HeLa; assay type: cell-based; settings: Homo sapiens, 24 h in dark, read-out: DK IC50 (dark toxicity)
# Protocol: as §1, §2
# [11] = system: HeLa cells; assay: Phototoxicity measurement (CCK-8), HeLa; assay type: cell-based, human; settings: for IC50: Homo sapiens, light or radiation study, 1 h incubation, 630 nm LED, 3.2 J cm^−2, then 24 h, read-out: PDK IC50 (phototoxicity)
# Protocol: as §1, §3
# [12] = Singlet oxygen generation, DPBF steady-state method; assay type: physicochemical; settings: 2 μM in EtOH, 630 nm LED, irradiation for 20 s
# Protocol: The efficiency of producing singlet oxygen through photosensitization is an important index for evaluating the photosensitizers. In the example, a conventional steady-state method was used, 1,3-diphenylisobenzofuran (DPBF) was used as a scavenger, which irreversibly reacted with the singlet oxygen to cause attenuation of the DPBF. An attenuation rate of the DPBF reflects production efficiency of ^1O2. Concentrations of the DPBF in EtOH at multiple irradiation time periods were measured by using a UV/Vis spectrum method.
# [13] = system: 4T1 subcutaneous tumors; assay: Distribution in 4T1 subcutaneous tumors of mice (imaging); assay type: in vivo, BALB/c mice; settings: 1.6 mg/kg via tail vein
# Protocol: (§6) 7-week-old BALB/c female mice weighing 18 g±1 g (purchased from Zhejiang Vital River Laboratory Animal Technology Co., Ltd) were used to construct a subcutaneous breast cancer (4T1) tumor model. When tumor volumes of the BALB/c mice were approximately 100 mm^3, in vivo anti-tumor experiments began. When the tumor volumes of the BALB/c mice were approximately 200 mm^3, imaging experiments began.
# A solution of 10 mg/L was prepared from the compound I-3 of the present invention by using 1×PBS. The BALB/c mice with the tumor volumes of approximately 200 mm^3 were taken, and the solution was injected into tumor bearing mice via tail veins at a dose of 1.6 mg/kg. Imaging photos were taken at different times using Odyssey CLX, with excitation light of 680 nm and detection light of 720 nm. […] Therefore, the thiophene-phenothiazine compound of the present invention can be completely metabolized within 24 hours, effectively solving a metabolic problem in existing PDT treatment mentioned above.
# [14] = Photostability under continuous LED irradiation; assay type: physicochemical; settings: 630 nm LED, 106 mW cm^−2, FIG. 4
# Protocol: Good photostability is a prerequisite for ensuring continuous generation of ROS by the photosensitizers under light excitation, which can effectively prevent decomposition of the photosensitizers after illumination, avoiding a decrease in a ROS generation rate with increasing illumination time. An LED light source (630 nm, 106 mW cm^−2) was used to continuously irradiate the compound (5 μM), and a UV-visible spectrophotometer was used to measure the absorption spectrum of the compound at 200-800 nm. The photostability of the compound was evaluated by comparing changes in maximum absorption values at 600-800 nm after different irradiation times.
# Result diagrams of other compounds are similar to that of the compound I-3.
# [15] = system: subcutaneous breast cancer (4T1) tumor model; assay: In vivo PDT inhibition of breast cancer growth; design: species or system BALB/c mice; settings: 21 days
# Text: as §6
# The BALB/c mice with the tumor volumes of approximately 100 mm^3 were taken, and the tumor bearing mice were divided into 4 groups, namely groups A, B, C and D, with 5 mice in each group. The mice in the group A and the group B were injected with 1×PBS 100 μL via tail veins. In addition, the mice in the group C and the group D were injected with compound I-3 via the tail veins at a dose of 1.6 mg/kg; and after 2 hours, the mice in the group B and the group D were irradiated with a light source (655 nm, 300 mW cm^2) for 10 minutes. Body weights and tumor volumes of the mice were measured on the 2nd day, 4th day, 8th day, 12th day, 16th day, and 21st day, respectively. On the 21st day, approximately 0.8 mL of mouse blood was collected using an eyeball blood sampling method, of which 0.4 mL of the mouse blood was placed in an EDTA-2K anticoagulant tube, and the remaining 0.4 mL of the mouse blood was centrifuged for serum collection.
# [16] = system: 4T1 subcutaneous tumors; settings: comparison from prior knowledge; cited from earlier work
# [17] = Mus musculus, light or radiation study
Compound,λmax (maximum absorption wavelength) [6],λem (maximum fluorescence emission wavelength) [7],ϕF (fluorescence quantum yield) [7],IC50 [1],PI (phototherapeutic index) [2],"IC50 [2, 17]",IC50 [3],IC50 ([4]; Mus musculus),IC50 [5],PI (phototherapeutic index) [8],IC50 [8],PI (phototherapeutic index) [9],IC50 [9],IC50 [10],PI (phototherapeutic index) [11],IC50 [11],also measured
CCN(CC)c1ccc2c(c1)S(Cl)=c1cc(NC)c3ccsc3c1=N2 (stereo not shown) [Compound I-2],671 nm,698 nm,0.5,6930 nM,24.41,400 nM,17600 nM,9790 nM,2030 nM,21.66,320 nM,14.2,140 nM,3140 nM,23.49,130 nM,–
"CN(C)c1ccc2nc3ccc(=[N+](C)C)cc-3sc2c1 [MB, Methylene blue, reference compound]",–,–,–,–,–,–,–,–,–,–,–,–,–,–,–,–,IC50 [2]: 14100 nM; IC50 [4]: 25700 nM
porfimer sodium,–,–,–,–,–,–,–,–,–,–,–,–,–,–,–,–,metabolic time in the bodies [16]: about ten weeks

# Further lines, with some results ahead:
λmax (maximum absorption wavelength) [6],λem (maximum fluorescence emission wavelength) [7],ϕF (fluorescence quantum yield) [7],Compound,IC50 [1],PI (phototherapeutic index) [2],"IC50 [2, 17]",IC50 [3],IC50 ([4]; Mus musculus),IC50 [5],PI (phototherapeutic index) [8],IC50 [8],PI (phototherapeutic index) [9],IC50 [9],IC50 [10],PI (phototherapeutic index) [11],IC50 [11],also measured
663 nm,692 nm,0.4,CCN(CC)c1ccc2c(c1)S(Cl)=c1cc(N)c3ccsc3c1=N2 (stereo not shown) [Compound I-1],7540 nM,17.69,870 nM,25200 nM,15400 nM,3560 nM,16.47,460 nM,9.03,390 nM,3740 nM,10.26,360 nM,–
673 nm,700 nm,0.6,CCCNc1cc2c(c3sccc13)=Nc1ccc(N(CC)CC)cc1S=2Cl (stereo not shown) [Compound I-3],6590 nM,44.51,190 nM,13600 nM,8670 nM,2860 nM,31.35,210 nM,24.00,120 nM,2400 nM,32.72,70 nM,"photosensitive efficiency (1O2, DPBF attenuation) [12]: 80%; time within which metabolized in mice [13]: ≤ 24 h; time after which compound gradually accumulates in tumors ([13]; 4T1 tumor bearing mice): 1 h; time of maximum accumulation in the tumors ([13]; 4T1 tumor bearing mice): 2 h; imaging signal after 24 hours ([13]; 24 hours): basically not detected; change of maximum absorption value as irradiation time increases (photostability) [14]: does not show a significant change; growth of tumor volumes ([15]; group C: 1.6 mg/kg i.v. alone, no irradiation): did not show tumor growth inhibition; growth of tumor volumes ([15]; group D: 1.6 mg/kg i.v. + light 655 nm, 10 minutes, after 2 hours): significantly inhibited"
673 nm,701 nm,0.5,CCCCCNc1cc2c(c3sccc13)=Nc1ccc(N(CC)CC)cc1S=2Cl (stereo not shown) [Compound I-4],3490 nM,4.16,1320 nM,10400 nM,5480 nM,3490 nM,11.09,310 nM,9.05,390 nM,1890 nM,4.32,440 nM,–
674 nm,700 nm,0.6,CCCCCCCNc1cc2c(c3sccc13)=Nc1ccc(N(CC)CC)cc1S=2Cl (stereo not shown) [Compound I-5],3570 nM,2.22,1920 nM,7630 nM,4270 nM,3340 nM,8.57,420 nM,7.11,470 nM,1440 nM,3.32,430 nM,–
